In PMC9569420 (Communications Biology, 2022):

Assays:
CAMK2b = target: T1, CAMK2b (Homo sapiens, UniProt Q13554); assay: HotSpot kinase assay; type: biochemical; settings: read-out: % Enzyme Activity (relative to DMSO controls)
T1 construct: purchased Reaction Biology Corporation

LIMK1 = target: T2, LIMK1 (Homo sapiens, UniProt P53667); assay: HotSpot kinase assay; type: biochemical; settings: read-out: % Enzyme Activity (relative to DMSO controls)
T2 construct: purchased Reaction Biology Corporation

MAPKAPK5/PRAK = target: T3, MAPKAPK5/PRAK (Homo sapiens, UniProt Q8IW41); assay: HotSpot kinase assay; type: biochemical; settings: read-out: % Enzyme Activity (relative to DMSO controls)
T3 construct: purchased Reaction Biology Corporation

TBK1 = target: T4, TBK1 (Homo sapiens, UniProt Q9UHD2); assay: HotSpot kinase assay; type: biochemical; settings: read-out: % Enzyme Activity (relative to DMSO controls)
T4 construct: purchased Reaction Biology Corporation

PKCb1 = target: T5, PKCb1 (Homo sapiens, UniProt P05771); assay: biochemical; settings: read-out: % Enzyme Activity (relative to DMSO controls)
T5 construct: purchased Reaction Biology Corporation

AKT1 = target: T6, AKT1 (Homo sapiens, UniProt P31749); assay: biochemical
T6 construct: purchased Reaction Biology Corporation

FER = target: T7, FER (Homo sapiens, UniProt P16591); assay: HotSpot kinase assay; type: biochemical; settings: read-out: % Enzyme Activity (relative to DMSO controls)
T7 construct: purchased Reaction Biology Corporation

c-MER = target: T8, c-MER (Homo sapiens, UniProt Q12866); assay: HotSpot kinase assay; type: biochemical; settings: read-out: % Enzyme Activity (relative to DMSO controls)
T8 construct: purchased Reaction Biology Corporation

DDR2 = target: T9, DDR2 (Homo sapiens, UniProt Q16832); assay: HotSpot kinase assay; type: biochemical; settings: read-out: % Enzyme Activity (relative to DMSO controls)
T9 construct: purchased Reaction Biology Corporation

RIPK4 = target: T10, RIPK4 (Homo sapiens, UniProt P57078); assay: HotSpot kinase assay; type: biochemical; settings: read-out: % Enzyme Activity (relative to DMSO controls)
T10 construct: purchased Reaction Biology Corporation

JNK2 = target: T11, JNK2 (Homo sapiens, UniProt P45984); assay: HotSpot kinase assay; type: biochemical; settings: read-out: % Enzyme Activity (relative to DMSO controls)
T11 construct: purchased Reaction Biology Corporation

SIK1 = target: T12, SIK1 (Homo sapiens, UniProt P57059); assay: HotSpot kinase assay; type: biochemical; settings: read-out: % Enzyme Activity (relative to DMSO controls)
T12 construct: purchased Reaction Biology Corporation

SARS-CoV-2 (WA1/2020) = assay: SARS-CoV-2 infection of Huh-7.5 cells (nucleocapsid staining); settings: 24 and 72 h
PKCIOTA = target: T13, PKCIOTA (Homo sapiens, UniProt P41743); assay: HotSpot kinase assay; type: biochemical; settings: read-out: % Enzyme Activity (relative to DMSO controls)
T13 construct: purchased Reaction Biology Corporation

MEK1 = target: T14, MEK1 (Homo sapiens, UniProt Q02750); assay: HotSpot kinase assay; type: biochemical; settings: read-out: % Enzyme Activity (relative to DMSO controls)
T14 construct: purchased Reaction Biology Corporation

SIK2 = target: T15, SIK2 (Homo sapiens, UniProt Q9H0K1); assay: HotSpot kinase assay; type: biochemical; settings: read-out: % Enzyme Activity (relative to DMSO controls)
T15 construct: purchased Reaction Biology Corporation

STK32B/YANK2 = target: T16, STK32B/YANK2 (Homo sapiens, UniProt Q9NY57); assay: HotSpot kinase assay; type: biochemical; settings: read-out: % Enzyme Activity (relative to DMSO controls)
T16 construct: purchased Reaction Biology Corporation

PYK2 = target: T17, PYK2 (Homo sapiens, UniProt Q14289); assay: HotSpot kinase assay; type: biochemical; settings: read-out: % Enzyme Activity (relative to DMSO controls)
T17 construct: purchased Reaction Biology Corporation

EIF2AK3 = target: T18, EIF2AK3 (Homo sapiens, UniProt Q9NZJ5); assay: HotSpot kinase assay; type: biochemical; settings: read-out: % Enzyme Activity (relative to DMSO controls)
T18 construct: purchased Reaction Biology Corporation

CAMK2d = target: T19, CAMK2d (Homo sapiens, UniProt Q13557); assay: HotSpot kinase assay; type: biochemical; settings: read-out: % Enzyme Activity (relative to DMSO controls)
T19 construct: purchased Reaction Biology Corporation

CDK4/cyclin D1 = target: T20, CDK4/cyclin D1 (Homo sapiens, UniProt P11802); assay: HotSpot kinase assay; type: biochemical; settings: read-out: % Enzyme Activity (relative to DMSO controls)
T20 construct: purchased Reaction Biology Corporation

LYN = target: T21, LYN (Homo sapiens, UniProt P07948); assay: HotSpot kinase assay; type: biochemical; settings: read-out: % Enzyme Activity (relative to DMSO controls)
T21 construct: purchased Reaction Biology Corporation

PHKg1 = target: T22, PHKg1 (Homo sapiens, UniProt Q16816); assay: HotSpot kinase assay; type: biochemical; settings: read-out: % Enzyme Activity (relative to DMSO controls)
T22 construct: purchased Reaction Biology Corporation

FMS = target: T23, FMS (Homo sapiens, UniProt P07333); assay: HotSpot kinase assay; type: biochemical; settings: read-out: % Enzyme Activity (relative to DMSO controls)
T23 construct: purchased Reaction Biology Corporation

DYRK1/DYRK1A = target: T24, DYRK1/DYRK1A (Homo sapiens, UniProt Q13627); assay: HotSpot kinase assay; type: biochemical; settings: read-out: % Enzyme Activity (relative to DMSO controls)
T24 construct: purchased Reaction Biology Corporation

CDK2/cyclin A = target: T25, CDK2/cyclin A (Homo sapiens, UniProt P24941); assay: HotSpot kinase assay; type: biochemical; settings: read-out: % Enzyme Activity (relative to DMSO controls)
T25 construct: purchased Reaction Biology Corporation

NEK4 = target: T26, NEK4 (Homo sapiens, UniProt P51957); assay: HotSpot kinase assay; type: biochemical; settings: read-out: % Enzyme Activity (relative to DMSO controls)
T26 construct: purchased Reaction Biology Corporation

CDK9/cyclin T2 = target: T27, CDK9/cyclin T2 (Homo sapiens, UniProt P50750); assay: HotSpot kinase assay; type: biochemical; settings: read-out: % Enzyme Activity (relative to DMSO controls)
T27 construct: purchased Reaction Biology Corporation

ABL2/ARG = target: T28, ABL2/ARG (Homo sapiens, UniProt P42684); assay: HotSpot kinase assay; type: biochemical; settings: read-out: % Enzyme Activity (relative to DMSO controls)
T28 construct: purchased Reaction Biology Corporation

T6 sequence (P31749 whole entry): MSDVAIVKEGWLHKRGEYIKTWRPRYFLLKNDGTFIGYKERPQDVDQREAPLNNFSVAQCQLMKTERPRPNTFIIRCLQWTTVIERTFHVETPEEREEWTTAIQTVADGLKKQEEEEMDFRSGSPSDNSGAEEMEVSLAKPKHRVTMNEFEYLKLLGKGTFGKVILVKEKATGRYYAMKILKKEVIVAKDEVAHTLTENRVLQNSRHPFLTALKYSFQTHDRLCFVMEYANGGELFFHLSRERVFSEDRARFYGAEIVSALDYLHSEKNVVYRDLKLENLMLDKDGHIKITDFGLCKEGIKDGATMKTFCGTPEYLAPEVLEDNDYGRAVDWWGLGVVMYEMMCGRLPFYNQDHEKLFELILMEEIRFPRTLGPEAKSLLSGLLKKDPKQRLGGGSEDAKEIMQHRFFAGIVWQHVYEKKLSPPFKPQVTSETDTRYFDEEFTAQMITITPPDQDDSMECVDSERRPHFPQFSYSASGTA
T20 sequence (P11802 whole entry): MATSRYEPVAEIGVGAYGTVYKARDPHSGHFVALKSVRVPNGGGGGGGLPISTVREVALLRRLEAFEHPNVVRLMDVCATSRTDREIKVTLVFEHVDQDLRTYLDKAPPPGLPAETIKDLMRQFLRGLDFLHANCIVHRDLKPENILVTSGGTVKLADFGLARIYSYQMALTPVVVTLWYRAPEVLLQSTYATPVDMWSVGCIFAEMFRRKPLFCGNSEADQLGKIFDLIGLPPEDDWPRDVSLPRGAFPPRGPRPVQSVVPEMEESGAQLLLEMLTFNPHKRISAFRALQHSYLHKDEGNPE
T20 sequence (P24385 whole entry partner): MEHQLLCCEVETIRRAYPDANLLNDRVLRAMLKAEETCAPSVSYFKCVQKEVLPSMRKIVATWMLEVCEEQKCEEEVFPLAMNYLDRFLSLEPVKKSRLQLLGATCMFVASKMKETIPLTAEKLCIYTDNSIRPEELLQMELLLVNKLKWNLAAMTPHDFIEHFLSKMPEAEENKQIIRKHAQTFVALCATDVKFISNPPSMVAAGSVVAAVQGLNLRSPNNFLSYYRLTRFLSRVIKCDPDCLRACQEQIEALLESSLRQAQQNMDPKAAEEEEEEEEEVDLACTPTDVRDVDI
T9 sequence (Q16832 22-855): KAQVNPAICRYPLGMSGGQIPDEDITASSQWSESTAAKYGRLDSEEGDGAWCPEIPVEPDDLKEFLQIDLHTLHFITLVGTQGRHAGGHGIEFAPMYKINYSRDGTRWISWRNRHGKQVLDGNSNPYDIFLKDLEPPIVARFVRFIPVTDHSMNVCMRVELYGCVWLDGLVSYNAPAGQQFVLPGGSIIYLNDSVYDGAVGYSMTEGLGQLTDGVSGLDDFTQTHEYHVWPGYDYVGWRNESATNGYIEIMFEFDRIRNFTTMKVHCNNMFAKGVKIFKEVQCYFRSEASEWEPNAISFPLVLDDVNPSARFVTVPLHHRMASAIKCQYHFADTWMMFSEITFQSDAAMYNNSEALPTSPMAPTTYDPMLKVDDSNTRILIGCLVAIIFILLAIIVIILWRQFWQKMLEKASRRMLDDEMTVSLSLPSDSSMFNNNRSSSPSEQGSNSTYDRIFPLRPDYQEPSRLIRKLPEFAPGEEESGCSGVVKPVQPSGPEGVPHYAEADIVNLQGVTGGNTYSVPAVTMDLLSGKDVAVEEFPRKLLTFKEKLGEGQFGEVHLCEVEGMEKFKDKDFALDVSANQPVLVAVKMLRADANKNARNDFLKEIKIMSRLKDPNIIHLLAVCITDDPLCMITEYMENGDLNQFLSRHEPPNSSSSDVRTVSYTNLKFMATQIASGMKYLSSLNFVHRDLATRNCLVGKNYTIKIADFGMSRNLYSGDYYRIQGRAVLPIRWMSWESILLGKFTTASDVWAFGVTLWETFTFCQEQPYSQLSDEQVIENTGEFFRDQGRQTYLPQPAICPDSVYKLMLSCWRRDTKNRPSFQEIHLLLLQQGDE
T1 sequence (Q13554 whole entry): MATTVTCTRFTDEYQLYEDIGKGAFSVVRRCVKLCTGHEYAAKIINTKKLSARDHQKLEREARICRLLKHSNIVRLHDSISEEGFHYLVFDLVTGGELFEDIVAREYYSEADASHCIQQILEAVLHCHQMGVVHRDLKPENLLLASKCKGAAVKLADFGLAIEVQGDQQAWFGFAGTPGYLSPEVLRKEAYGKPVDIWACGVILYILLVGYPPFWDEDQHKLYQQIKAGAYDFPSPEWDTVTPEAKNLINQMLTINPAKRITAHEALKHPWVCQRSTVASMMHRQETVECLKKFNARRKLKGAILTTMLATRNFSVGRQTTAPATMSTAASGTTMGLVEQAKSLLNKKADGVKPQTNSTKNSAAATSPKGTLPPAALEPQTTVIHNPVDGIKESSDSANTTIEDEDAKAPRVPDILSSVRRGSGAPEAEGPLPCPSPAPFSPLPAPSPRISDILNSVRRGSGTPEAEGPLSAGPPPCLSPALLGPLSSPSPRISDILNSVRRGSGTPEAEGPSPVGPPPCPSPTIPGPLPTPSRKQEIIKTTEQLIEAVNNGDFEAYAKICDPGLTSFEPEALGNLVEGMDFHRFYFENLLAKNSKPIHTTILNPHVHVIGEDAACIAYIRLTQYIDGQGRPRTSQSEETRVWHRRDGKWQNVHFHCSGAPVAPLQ
T16 sequence (Q9NY57 whole entry): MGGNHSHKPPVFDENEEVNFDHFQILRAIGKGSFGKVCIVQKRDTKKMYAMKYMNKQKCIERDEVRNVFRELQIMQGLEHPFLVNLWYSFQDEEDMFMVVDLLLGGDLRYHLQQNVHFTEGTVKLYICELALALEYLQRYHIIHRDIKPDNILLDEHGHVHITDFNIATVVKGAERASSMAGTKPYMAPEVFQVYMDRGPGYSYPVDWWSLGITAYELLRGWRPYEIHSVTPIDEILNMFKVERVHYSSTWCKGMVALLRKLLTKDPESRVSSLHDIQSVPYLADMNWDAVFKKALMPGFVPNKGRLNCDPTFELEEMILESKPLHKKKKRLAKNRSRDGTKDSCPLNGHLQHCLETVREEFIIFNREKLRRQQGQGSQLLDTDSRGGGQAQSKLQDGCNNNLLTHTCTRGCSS
T21 sequence (P07948 whole entry): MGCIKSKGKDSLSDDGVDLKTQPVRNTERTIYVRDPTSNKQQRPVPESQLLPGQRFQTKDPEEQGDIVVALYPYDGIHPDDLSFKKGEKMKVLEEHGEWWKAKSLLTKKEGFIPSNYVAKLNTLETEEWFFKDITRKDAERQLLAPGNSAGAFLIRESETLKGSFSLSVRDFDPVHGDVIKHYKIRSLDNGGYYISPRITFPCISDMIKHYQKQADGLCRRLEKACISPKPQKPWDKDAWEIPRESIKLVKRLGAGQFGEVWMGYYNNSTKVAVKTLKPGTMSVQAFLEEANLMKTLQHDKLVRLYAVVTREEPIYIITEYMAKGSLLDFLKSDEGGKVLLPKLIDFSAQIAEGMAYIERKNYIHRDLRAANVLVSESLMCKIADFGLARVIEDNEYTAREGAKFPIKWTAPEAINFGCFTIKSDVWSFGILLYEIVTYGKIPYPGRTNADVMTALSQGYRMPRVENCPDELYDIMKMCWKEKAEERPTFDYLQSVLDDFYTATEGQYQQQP
T11 sequence (P45984 whole entry): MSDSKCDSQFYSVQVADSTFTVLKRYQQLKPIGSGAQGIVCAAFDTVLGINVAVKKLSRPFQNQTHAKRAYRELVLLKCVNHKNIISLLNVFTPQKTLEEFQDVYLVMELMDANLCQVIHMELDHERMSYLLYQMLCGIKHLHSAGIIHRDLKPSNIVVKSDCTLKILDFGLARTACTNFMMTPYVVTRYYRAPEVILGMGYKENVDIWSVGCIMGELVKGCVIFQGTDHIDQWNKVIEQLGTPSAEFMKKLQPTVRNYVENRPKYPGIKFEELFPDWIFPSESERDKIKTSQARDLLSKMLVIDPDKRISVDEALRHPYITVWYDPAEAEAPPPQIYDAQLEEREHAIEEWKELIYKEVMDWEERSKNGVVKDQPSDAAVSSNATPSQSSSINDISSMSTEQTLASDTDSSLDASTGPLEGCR
T22 sequence (Q16816 whole entry): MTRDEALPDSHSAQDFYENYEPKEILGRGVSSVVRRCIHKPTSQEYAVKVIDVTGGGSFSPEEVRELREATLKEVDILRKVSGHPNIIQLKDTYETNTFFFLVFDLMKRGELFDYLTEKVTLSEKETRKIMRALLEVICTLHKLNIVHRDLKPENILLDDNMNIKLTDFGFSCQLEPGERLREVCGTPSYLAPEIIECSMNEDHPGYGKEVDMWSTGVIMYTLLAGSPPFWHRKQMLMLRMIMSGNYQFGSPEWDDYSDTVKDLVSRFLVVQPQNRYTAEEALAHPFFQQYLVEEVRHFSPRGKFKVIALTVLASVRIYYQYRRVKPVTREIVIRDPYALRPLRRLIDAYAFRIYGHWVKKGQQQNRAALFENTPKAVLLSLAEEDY
T5 sequence (P05771 whole entry): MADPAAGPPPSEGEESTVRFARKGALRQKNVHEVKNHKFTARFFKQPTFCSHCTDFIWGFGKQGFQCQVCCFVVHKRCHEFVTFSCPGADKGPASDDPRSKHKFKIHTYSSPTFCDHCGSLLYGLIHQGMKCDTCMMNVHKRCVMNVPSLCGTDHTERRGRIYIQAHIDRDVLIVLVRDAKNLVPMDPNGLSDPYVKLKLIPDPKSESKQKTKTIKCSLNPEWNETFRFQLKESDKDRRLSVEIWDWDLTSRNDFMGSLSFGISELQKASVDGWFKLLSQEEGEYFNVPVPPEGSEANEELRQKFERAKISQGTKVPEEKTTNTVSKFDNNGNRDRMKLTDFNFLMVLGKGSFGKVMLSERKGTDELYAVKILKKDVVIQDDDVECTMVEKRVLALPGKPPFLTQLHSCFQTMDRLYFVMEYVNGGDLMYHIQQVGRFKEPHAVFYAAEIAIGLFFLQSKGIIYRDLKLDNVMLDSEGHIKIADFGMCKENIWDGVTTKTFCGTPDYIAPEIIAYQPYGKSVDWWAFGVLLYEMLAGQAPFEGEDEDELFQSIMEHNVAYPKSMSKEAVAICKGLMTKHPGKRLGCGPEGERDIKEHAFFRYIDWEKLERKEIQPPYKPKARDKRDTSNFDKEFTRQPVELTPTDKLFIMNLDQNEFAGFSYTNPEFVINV

Work on CO[C@@H]1[C@H](N(C)C(=O)CCC(=O)NCc2cn(CCCS(=O)(=O)O)nn2)C[C@H]2O[C@]1(C)n1c3ccccc3c3c4c(c5c6ccccc6n2c5c31)C(=O)NC4 [CIMSS] yielded a remaining activity at 10 µM (CAMK2b) of 3.03%, a remaining activity at 10 µM (LIMK1) of 0.88% and a remaining activity at 10 µM (MAPKAPK5/PRAK) of 85.2%. The remaining activity at 10 µM (TBK1) was 2.01%, the remaining activity at 10 µM (PKCb1) was 2.83% and the IC50 (AKT1; Supplementary Table 1, read-out: IC50 (Molar concentration)) was 461 nM. The remaining activity at 10 µM (AKT1; read-out: % Enzyme Activity (relative to DMSO controls), 10µM) was 23.7%, the inhibition at 10 µM (AKT1; read-out: inhibition of Akt1) was > 75% and the remaining activity at 10 µM (FER) was 0.37%. It also gave a remaining activity at 10 µM (c-MER) of 2.17%, a remaining activity at 10 µM (DDR2) of 1.67% and a remaining activity at 10 µM (RIPK4) of 99.1%. The remaining activity at 10 µM (JNK2) was 42.3%, the remaining activity at 10 µM (SIK1) was 1% and the “authentic SARS-CoV-2 (WA1/2020) infection” value (SARS-CoV-2 (WA1/2020)) was “inhibitory activity”. It also gave a remaining activity at 10 µM (PKCIOTA) of 31.5%, a remaining activity at 10 µM (MEK1) of 76.7% and a remaining activity at 10 µM (SIK2) of 1.49%. For the same compound, the remaining activity at 10 µM (STK32B/YANK2) was 0.96%, the remaining activity at 10 µM (PYK2) was 2.4% and the remaining activity at 10 µM (EIF2AK3) was 61.6%. For the same compound, the “levels of phosphorylated Akt (serine 473 and threonine 308) in non-permeabilized cells” value (Akt, PDPK1, PLCγ; 10µM) was “reduce levels”, the “phosphorylation of PDPK1 and PLCγ” value (Akt, PDPK1, PLCγ; 10 µM, 15 and 30 min following viral infection) was “inhibited” and the remaining activity at 10 µM (CAMK2d) was 1.33%. For the same compound, the remaining activity at 10 µM (CDK4/cyclin D1) was 68.8%, the remaining activity at 10 µM (LYN) was 2.5% and the remaining activity at 10 µM (PHKg1) was 3.74%. The remaining activity at 10 µM (FMS) was 0.52%, the remaining activity at 10 µM (DYRK1/DYRK1A) was 2.33% and the remaining activity at 10 µM (CDK2/cyclin A) was 5.14%. For the same compound, the remaining activity at 10 µM (NEK4) was 6.24%, the remaining activity at 10 µM (CDK9/cyclin T2) was 8.55% and the remaining activity at 10 µM (ABL2/ARG) was 4.07%.
